# Test results published in US20160237044A1, “SUBSTITUTED PHENYLALANINE DERIVATIVES” (BAYER PHARMA AKTIENGESELLSCHAFT, priority 2013, published 2016).
# Structures can show the parent of a compound that is named as a salt. Where two headings read alike, the source gives them in different places.
# Experiments:
# human factor XIa = molecular target: T1, human factor XIa (Homo sapiens, UniProt P03951); assay: Measurement of FXIa inhibition (fluorogenic peptide substrate Boc-Glu(OBzl)-Ala-Arg-AMC); format: biochemical
# T1 construct: purchased Kordia
# Procedure: a.1) Measurement of FXIa Inhibition
# The factor XIa inhibition of the substances according to the invention is determined using a biochemical test system which utilizes the reaction of a peptidic factor XIa substrate to determine the enzymatic activity of human factor XIa. Here, factor XIa cleaves from the peptic factor XIa substrate the C-terminal aminomethylcoumarin (AMC), the fluorescence of which is measured. The determinations are carried out in microtitre plates.
# In each case 1 μl of the diluted substance solutions is placed into the wells of white microtitre plates from Greiner (384 wells). […] After 15 min of incubation, the enzyme reaction is started by addition of 20 μl of the factor XIa substrate Boc-Glu(OBzl)-Ala-Arg-AMC dissolved in assay buffer (10 μM in assay buffer) from Bachem, the mixture is incubated at room temperature (22° C.) for 30 min and fluorescence is then measured (excitation: 360 nm, emission: 460 nm). The measured emissions of the test batches with test substance are compared to those of control batches without test substance (only dimethyl sulphoxide instead of test substance in dimethyl sulphoxide), and IC50 values are calculated from the concentration/activity relationships.
# plasma = assay: Determination of anticoagulatory activity: activated partial thromboplastin time (aPTT) in plasma; format: biochemical, human; conditions: concentration of test substance which brings about a 1.5-fold extension of the aPTT, C.K. Prest kit, 37° C.
# Procedure: a.4) Determination of Anticoagulatory Activity
# The anticoagulatory activity of the test substances is determined in vitro in human and animal plasma (for example mouse, rat, rabbit, pig and dog plasma). To this end, blood is drawn off in a mixing ratio of sodium citrate/blood of 1:9 using a 0.11 molar sodium citrate solution as receiver. Immediately after the blood has been drawn off, it is mixed thoroughly and centrifuged at about 4000 g for 15 minutes. The supernatant is pipetted off.
# The activated partial thromboplastin time (aPTT) is determined in the presence of varying concentrations of test substance or the corresponding solvent using a commercial test kit (C.K. Prest from Diagnostica Stago). The test compounds are incubated with the plasma and the PTT reagent (cephalin, kaolin) at 37° C. for 3 minutes. Coagulation is then started by addition of a 25 mM aqueous calcium chloride solution, and the time when coagulation occurs is determined. The concentration of test substance which brings about a 1.5-fold extension of the aPTT is determined.
# [1] = factor XIa from Kordia, 15 min preincubation, 30 min at 22° C., fluorescence, read-out: IC50
# T1 sequence (P03951 388-625 limits assumed): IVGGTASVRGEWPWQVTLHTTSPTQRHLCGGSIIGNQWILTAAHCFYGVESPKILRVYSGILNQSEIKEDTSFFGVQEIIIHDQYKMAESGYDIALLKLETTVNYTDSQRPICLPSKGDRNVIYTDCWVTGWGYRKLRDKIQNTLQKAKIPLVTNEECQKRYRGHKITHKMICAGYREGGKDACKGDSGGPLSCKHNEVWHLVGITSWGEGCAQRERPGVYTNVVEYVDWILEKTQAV
# T1 sequence (P03951 19-387 partner limits assumed): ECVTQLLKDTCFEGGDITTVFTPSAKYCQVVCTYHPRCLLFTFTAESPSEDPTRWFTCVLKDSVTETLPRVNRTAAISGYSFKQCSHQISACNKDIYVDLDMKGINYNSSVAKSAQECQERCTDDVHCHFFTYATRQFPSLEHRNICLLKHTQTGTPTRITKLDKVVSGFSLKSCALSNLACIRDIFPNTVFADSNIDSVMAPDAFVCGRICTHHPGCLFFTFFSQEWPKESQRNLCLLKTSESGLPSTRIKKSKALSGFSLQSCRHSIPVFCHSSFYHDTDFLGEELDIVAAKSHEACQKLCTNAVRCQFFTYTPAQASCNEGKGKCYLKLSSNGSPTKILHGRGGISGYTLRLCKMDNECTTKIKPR
IC50 (human factor XIa; [1]),SMILES,Concentration for 1.5-fold aPTT extension (plasma),IC50 (human factor XIa)
1.1 nM,"Cc1cc(S(=O)(=O)NC2CCNCC2)ccc1-c1ccc(C[C@H](NC(=O)[C@H]2CC[C@H](CN)CC2)C(=O)Nc2ccc(-c3nnn[nH]3)cc2)cc1 [Example 1, trans-4-(Aminomethyl)-N-[(2S)-3-[2′-methyl-4′-(piperidin-4-ylsulphamoyl)biphenyl-4-yl]-1-oxo-1-{[4-(1H-tetrazol-5-yl)phenyl]amino}propan-2-yl]cyclohexanecarboxamide hydrochloride]",0.1 µmol/L,–
4.3 nM,"NC[C@H]1CC[C@H](C(=O)N[C@@H](Cc2ccc(-c3ccc(N4CCNCC4)cc3)cc2)C(=O)Nc2ccc(-c3nn[nH]n3)cc2)CC1 [Example 2, trans-4-(Aminomethyl)-N-[(2S)-1-oxo-3-[4′-(piperazin-1-yl)biphenyl-4-yl]-1-{[4-(2H-tetrazol-5-yl)phenyl]amino}propan-2-yl]cyclohexanecarboxamide hydrochloride]",–,–
8.1 nM,"COCCOc1ccc(-c2ccc(C[C@H](NC(=O)[C@H]3CC[C@H](CN)CC3)C(=O)Nc3ccc(-c4nn[nH]n4)cc3)cc2)cc1 [Example 3, trans-4-(Aminomethyl)-N-[(2S)-3-[4′-(2-methoxyethoxy)biphenyl-4-yl]-1-oxo-1-{[4-(2H-tetrazol-5-yl)phenyl]amino}propan-2-yl]cyclohexanecarboxamide hydrochloride]",–,–
18 nM,"CN1CCN(c2ccc(-c3ccc(C[C@H](NC(=O)[C@H]4CC[C@H](CN)CC4)C(=O)Nc4ccc(-c5nn[nH]n5)cc4)cc3)cc2)CC1 [Example 4, trans-4-(Aminomethyl)-N-[(2S)-3-[4′-(4-methylpiperazin-1-yl)biphenyl-4-yl]-1-oxo-1-{[4-(2H-tetrazol-5-yl)phenyl]amino}propan-2-yl]cyclohexanecarboxamide hydrochloride]",–,–
–,"NC[C@H]1CC[C@H](C(=O)N[C@@H](Cc2ccc(-c3ccc(N4CCOCC4)cc3)cc2)C(=O)Nc2ccc(-c3nn[nH]n3)cc2)CC1 [Example 5, trans-4-(Aminomethyl)-N-[(2S)-3-[4′-(morpholin-4-yl)biphenyl-4-yl]-1-oxo-1-{[4-(2H-tetrazol-5-yl)phenyl]amino}propan-2-yl]cyclohexanecarboxamide hydrochloride]",–,5.7 nM
3.6 nM,"COC(=O)c1ccc(-c2ccc(C[C@H](NC(=O)[C@H]3CC[C@H](CN)CC3)C(=O)Nc3ccc(-c4nn[nH]n4)cc3)cc2)cc1 [Example 7, Methyl 4′-[(2S)-2-({[trans-4-(aminomethyl)cyclohexyl]carbonyl}amino)-3-oxo-3-{[4-(2H-tetrazol-5-yl)phenyl]amino}propyl]biphenyl-4-carboxylic acid hydrochloride]",–,–
1 nM,"NC[C@H]1CC[C@H](C(=O)N[C@@H](Cc2ccc(-c3ccc(S(=O)(=O)NC4CCNCC4)cc3C(F)(F)F)cc2)C(=O)Nc2ccc(-c3nn[nH]n3)cc2)CC1 [Example 8, trans-4-(Aminomethyl)-N-[(2S)-1-oxo-3-[4′-(piperidin-4-ylsulphamoyl)-2′-(trifluoromethyl)biphenyl-4-yl]-1-{[4-(2H-tetrazol-5-yl)phenyl]amino}propan-2-yl]cyclohexanecarboxamide hydrochloride]",0.08 µmol/L,–
8.4 nM,"Cc1cc(NC(=O)CNC(=O)CNC(=O)CN)ccc1-c1ccc(C[C@H](NC(=O)[C@H]2CC[C@H](CN)CC2)C(=O)Nc2ccc(-c3nn[nH]n3)cc2)cc1 [Example 9, Glycylglycyl-N-{4′-[(2S)-2-({[trans-4-(aminomethyl)cyclohexyl]carbonyl}amino)-3-oxo-3-{[4-(2H-tetrazol-5-yl)phenyl]amino}propyl]-2-methylbiphenyl-4-yl}glycinamide hydrochloride]",–,–
1.1 nM,"Cc1cc(S(=O)(=O)NC2CCNC(C)C2)ccc1-c1ccc(C[C@H](NC(=O)[C@H]2CC[C@H](CN)CC2)C(=O)Nc2ccc(-c3nn[nH]n3)cc2)cc1 (stereo partly drawn) [Example 10, trans-4-(Aminomethyl)-N-[(2S)-3-(2′-methyl-4′-{[(2-methylpiperidin-4-yl]sulphamoyl}biphenyl-4-yl)-1-oxo-1-{[4-(2H-tetrazol-5-yl)phenyl]amino}propan-2-yl]cyclohexanecarboxamide hydrochloride]",0.1 µmol/L,–
1.9 nM,"COC(=O)c1ccc(-c2ccc(C[C@H](NC(=O)[C@H]3CC[C@H](CN)CC3)C(=O)Nc3ccc(-c4nn[nH]n4)cc3)cc2)c(Cl)c1.Cl [Example 11, Methyl 4′-[(2S)-2-({[trans-4-(aminomethyl)cyclohexyl]carbonyl}amino)-3-oxo-3-{[4-(2H-tetrazol-5-yl)phenyl]amino}propyl]-2-chlorobiphenyl-4-carboxylate hydrochloride]",0.49 µmol/L,–
3.1 nM,"Cc1cc(S(=O)(=O)N(C)C)ccc1-c1ccc(C[C@H](NC(=O)[C@H]2CC[C@H](CN)CC2)C(=O)Nc2ccc3c(=O)[nH][nH]c3c2)cc1 [Example 13, trans-4-(Aminomethyl)-N-{(2S)-3-[4′-(dimethylsulphamoyl)-2′-methylbiphenyl-4-yl]-1-oxo-1-[(3-oxo-2,3-dihydro-1H-indazol-6-yl)amino]propan-2-yl}cyclohexanecarboxamide hydrochloride]",0.07 µmol/L,–
3.2 nM,"Cc1cc(S(=O)(=O)NC(C)C)ccc1-c1ccc(C[C@H](NC(=O)[C@H]2CC[C@H](CN)CC2)C(=O)Nc2ccc3c(=O)[nH][nH]c3c2)cc1 [Example 14, trans-4-(Aminomethyl)-N-{(2S)-3-[4′-(isopropylsulphamoyl)-2′-methylbiphenyl-4-yl]-1-oxo-1-[(3-oxo-2,3-dihydro-1H-indazol-6-yl)amino]propan-2-yl}cyclohexanecarboxamide hydrochloride]",–,–
1.3 nM,"Cc1cc(S(=O)(=O)N[C@@H]2CCNC2)ccc1-c1ccc(C[C@H](NC(=O)[C@H]2CC[C@H](CN)CC2)C(=O)Nc2ccc(-c3nn[nH]n3)cc2)cc1 [Example 16, trans-4-(Aminomethyl)-N-[(2S)-3-{2′-methyl-4′-[(3R)-pyrrolidin-3-ylsulphamoyl]biphenyl-4-yl}-1-oxo-1-{[4-(2H-tetrazol-5-yl)phenyl]amino}propan-2-yl]cyclohexanecarboxamide hydrochloride]",0.11 µmol/L,–
3.5 nM,"CCN(CC)S(=O)(=O)c1ccc(-c2ccc(C[C@H](NC(=O)[C@H]3CC[C@H](CN)CC3)C(=O)Nc3ccc4c(=O)[nH][nH]c4c3)cc2)c(C)c1 [Example 17, trans-4-(Aminomethyl)-N-{(2S)-3-[4′-(diethylsulphamoyl)-2′-methylbiphenyl-4-yl]-1-oxo-1-[(3-oxo-2,3-dihydro-1H-indazol-6-yl)amino]propan-2-yl}cyclohexanecarboxamide hydrochloride]",0.13 µmol/L,–
5.4 nM,"CNS(=O)(=O)c1ccc(-c2ccc(C[C@H](NC(=O)[C@H]3CC[C@H](CN)CC3)C(=O)Nc3ccc4c(=O)[nH][nH]c4c3)cc2)c(C)c1 [Example 18, trans-4-(Aminomethyl)-N-{(2S)-3-[2′-methyl-4′-(methylsulphamoyl)biphenyl-4-yl]-1-oxo-1-[(3-oxo-2,3-dihydro-1H-indazol-6-yl)amino]propan-2-yl}cyclohexanecarboxamide hydrochloride]",0.13 µmol/L,–
2.3 nM,"NC[C@H]1CC[C@H](C(=O)N[C@@H](Cc2ccc(-c3ccc(S(=O)(=O)NCCO)cc3)cc2)C(=O)Nc2ccc(-c3nnc(Cl)[nH]3)cc2)CC1 [Example 19, trans-4-(Aminomethyl)-N-[(2S)-1-{[4-(5-chloro-4H-1,2,4-triazol-3-yl)phenyl]amino}-3-{4′-[(2-hydroxyethyl)sulphamoyl]biphenyl-4-yl}-1-oxopropan-2-yl]cyclohexanecarboxamide hydrochloride]",0.16 µmol/L,–
1.8 nM,"Cc1cc(S(N)(=O)=O)ccc1-c1ccc(C[C@H](NC(=O)[C@H]2CC[C@H](CN)CC2)C(=O)Nc2ccc(-c3nnc(Cl)[nH]3)cc2)cc1 [Example 20, trans-4-(Aminomethyl)-N-[(2S)-1-{[4-(3-chloro-4H-1,2,4-triazol-5-yl)phenyl]amino}-3-(2′-methyl-4′-sulphamoylbiphenyl-4-yl)-1-oxopropan-2-yl]cyclohexanecarboxamide hydrochloride]",0.18 µmol/L,–

SMILES,IC50 (human factor XIa; [1]),Concentration for 1.5-fold aPTT extension (plasma),IC50 (human factor XIa)
"NC[C@H]1CC[C@H](C(=O)N[C@@H](Cc2ccc(-c3ccc(N4CCNCC4)cc3)cc2)C(=O)Nc2ccc(-c3noc(=O)[nH]3)cc2)CC1 [Example 6, trans-4-(Aminomethyl)-N-{(2S)-1-oxo-1-{[4-(5-oxo-4,5-dihydro-1,2,4-oxadiazol-3-yl)phenyl]amino}-3-[4′-(piperazin-1-yl)biphenyl-4-yl]propan-2-yl}cyclohexanecarboxamide hydrochloride]",24 nM,–,–
